The text below walks through data of US8562947B2, “Oxidized avidin with high residency time in the treated tissues” (Sigma-Tau Industrie Farmaceutiche Riunite S.p.A., priority 2007, dated 2013).

Several values for one entry are separate records, joined by “and”; a condition that tells them apart may be missing. Equal entries are not always repeated. Bounds are passed on as bounds.

Data set [1] can be described thus: BiotinDOTA (ST2210) binding capacity by HABA assay. The settings on record: WTavidin value assumed as 100%.
Data set [2] in a line: Isothermal Titration Calorimetry of avidin/ST2210 interaction. The class given is binding. The note with it: for KA / N (stoichiometry): ITC with ST2210; for association constants (KA): ITC with ST2210, text.
Data set [3] is described as follows: Long term tissue permanence of wild type and oxidized avidins. Format: in vivo, Balb/c nu/nu mice. The note with it: referred to the 1 hour level; treated hind limb.
Data set [4] is described as follows: Thermal stability and conformational changes by circular dichroism spectroscopy (melting curves). Format: physicochemical. The settings on record: for thermal denaturation reversibility: heated without biotin; for p (slope of sigmoidal curve) / Tm: without biotin; for Tm: dichroic signal at 225 nm, 25-95° C. As for the experimental part: Thermal stability and conformational changes were determined by circular dichroism spectroscopy before and after oxidation, with and without 4 equivalents of biotin. Melting curves were recorded by following the decrease of dichroic signal at 225 nm in the temperature range 25-95° C. The point of inflection and slope (p) of sigmoidal curves were calculated by means of Boltzman fitting model of the scientific graphing and data analysis Origin® 7.0 software and represent the point of transition through the denatured condition.
For each specific compound, the thermal stability corresponds to the temperature which matches the point of inflection of the corresponding curve registered in the temperature range 25-95° C.
(In general: Circular dichroism is widely used to follow secondary structure.)

On the set-up of data set [5]: species or system Balb/c nu/nu mice. The settings on record: mouse, in vivo. As for the experimental part: The animal model of intraoperative avidination for radionuclide treatment IART® was set up by performing a surgical cut in one hind limb of a mouse, infiltrating radiolabelled avidin in the surgical margins and surrounding tissues and measuring radioactivity in the treated limb at different time points after administration. In a parallel group of mice, the radioactive avidin was infiltrated to the limb without surgery.
The amount of radioactivity, after 1 and 24 hours from administration was similar in the surgically treated and not surgically treated animals. Therefore, further studies were performed by infiltrating avidin without surgery. […] Labelled avidin was separated from free iodine by chromatography on a PD-10 column (Amersham Biosciences, Uppsala, Sweden) and oxidized as previously described in the Example 1 without any prior HABA protection.
Mice were sacrificed 1, 24 or 48 hours after ^111In-ST2210 administration and the treated and controlateral limbs, kidney, liver and blood samples were collected and counted in a gamma-counter (Camberra Packard, Schwadorf, Austria).

Data set [6] is classed as in vivo, Balb/c nu/nu mice. The note with it: for distribution of 111In-ST2210 in non target organs: mouse, in vivo. As for the experimental part:
After 48 hours from injection, the animals received intravenously (i.v.) 5 μg of ^111In-ST2210.
Groups of 5 animals were sacrificed at the indicated time points and radioactivity in the treated limb as well as in other non target organs measured by gamma counter (Camberra Packard, Schwadorf Austria).
One group of animals received a first intravenous dose of 5 μg of cold ST2210 24 hours prior to a second one of 5 μg ^111In-ST2210. The former occurred 24 hours after avidination. The animals were sacrificed 2 hours after i.v. injection of radiolabelled-ST2210 and radioactivity in the treated limb was measured by gamma counter as above.

Data set [7] can be described thus: Permanence in rabbit mammary tissue. The class given is in vivo, rabbits. The settings on record: for % ID/breast (+/− SD) at 24 h: rabbit mammary tissue; for amount found in the mammary tissue: rabbit, after 24 hours. As for the experimental part:
OXavidinHABA was evaluated for its permanence in the mammary tissue in comparison to WTavidin. […] The animals were sacrificed after 24 h from injection and tissue samples of the injected area of about 200 mg were collected and counted in a gamma counter as previously described. The data are the average (+/−SD) of 3 determinations.

For data set [8] the following is noted: mouse, in vivo.
Method: The injection into brain was performed through the left side of the skull, by using a Hamilton syringe, at a depth of 4-5 mm.
Details of data set [9]: species or system Balb/c mice. The settings on record: mouse, in vivo. From the text: ^125I-OXavidinHABA was saturated in vitro with ST2210, purified from unbound ST2210 by ultrafiltration and intramuscularly injected into one hind limb of Balb/c mice. The same protocol was followed with regard to WTavidin.
Data set [10] in a line: Tissue permanence of wild type, pegylated or oxidized avidins. Format: in vivo, C57Bl/6 mice. The settings on record: 24 hours after i.m. injection in hind limb. As for the experimental part:
Radioactivity in the treated limb was measured by gamma counter (Camberra Packard, Schwadorf Austria).
Chemically modified avidins were previously described by other groups with the intent of improving the avidin half-life in circulation (Caliceti P., et al., J. Control. Release, 2002, 83, 97; Salmaso S., et al., Int. J. Pharm., 2007, 340, 20). […] After 24 hours from injection, the animals were sacrificed and radioactivity in the treated limb was measured by gamma counter (Camberra Packard, Schwadorf Austria).

Data set [11] relates to tumoral lesions of the mammary gland of NeuT mice. Briefly: Therapeutic efficacy of pre-targeted brachytherapy in NeuT transgenic mice (whole mount analysis of mammary gland). The class given is in vivo, Balb-NeuT mice. The settings on record: compared to vehicle or WTavidin-treated breast; 90Y-ST2210 800 μCi. As for the experimental part: Two animals/group were sacrificed 3 hours after administration and both breasts IV and III excised and counted in a gamma counter as above. Non target organs were also collected weighted and counted. Data are expressed as the % ID/g of tissue. The effect of this pre-targeted brachytherapy on the tumoral lesions were evaluated by whole mount analysis of the mammary gland as described previously (De Giovanni C., et al., Cancer Research, 2004, 64, 4001).

Data set [12] can be described thus: Tissue localization in cryosections of avidinated muscle (immunofluorescence, haematoxylin/eosin). Format: in vivo, Balb/c nude mice. The note with it: 24 hrs from injection. As for the experimental part:
OXavidinHABA was evaluated for tissue localization in comparison to WTavidin in cryosections of avidinated tissues after intramuscular injection into one hind limb of Balb/c nude mice (Harlan, Udine Italy). The muscles were excised 24 hrs after treatment and serial cryosections were prepared from each sample. Each slide was stained with haematoxylin/eosin to evaluate the tissue morphology or incubated with a mouse anti avidin antibody (A5680, Sigma Aldrich, Italy) followed by anti mouse Alexa fluor 488 (Invitrogen, Milan Italy). Finally, slides were mounted with coverslips and observed under microscope.

As to “OXavidin 1 mM NaIO4: avidin oxidized with 1 mM NaIO4 without HABA”, the “BiotinDOTA binding % ± SD” value in data set [1] amounted to 77.2 ± 0.9%.
On to “OXavidin 5 mM NaIO4: avidin oxidized with 5 mM NaIO4 without HABA”, for which the “BiotinDOTA binding % ± SD” value in [1] worked out at 55.7 ± 2.2%.
In the case of “OXavidin 10 mM NaIO4: avidin oxidized with 10 mM NaIO4 without HABA”, in [1], the “BiotinDOTA binding % ± SD” value was 50.9% and 50.9 ± 2.4%.
“OXavidin 20 mM NaIO4: avidin oxidized with 20 mM NaIO4 without HABA”: in [2], the KA was 645000 ± 56900 M⁻¹ and the “N (stoichiometry)” value is 1.2 ± 0.012. Besides, the “BiotinDOTA binding % ± SD” value in [1] is 49.1% and 49.1 ± 2.1%.
Turning to “OXavidin 40 mM NaIO4: avidin oxidized with 40 mM NaIO4 without HABA”, the “BiotinDOTA binding % ± SD” value in [1] came out at 44.5 ± 0.9%.
On to “OXavidin: avidin oxidized with sodium periodate without prior HABA protection; NaIO4 concentration not stated at these places”, for which, in [2], the stoichiometry of interaction is recorded as 1.2 molecules of ST2210 per molecule and the KA was 645000 M⁻¹. Besides, in [3], the tissue half life result is on record as “about 2 weeks”. Moreover, in data set [4], the thermal denaturation reversibility entry is listed as “irreversible”; the “p (slope of sigmoidal curve)” value was 8.9 and 8.9 ± 0.1; the Tm was 74.3 °C and 74.3 ± 0.1 °C. Moreover, in data set [5], the “amount in the treated limb compared to native avidin” value was “more than double” and the “distribution in the non target organs (blood, kidney, liver)” value is on record as “lower distribution”.
In the case of “OXavidinHABA 1 mM NaIO4: avidin oxidized with 1 mM NaIO4 in presence of 1 mM HABA”, in [2], the KA was determined as 4.58e+06 ± 249000 M⁻¹ and the “N (stoichiometry)” value is given as 2.5 ± 0.008. Besides, in data set [1], the “BiotinDOTA binding % ± SD” value came to 99.0 ± 0.2%.
In the case of “OXavidinHABA 5 mM NaIO4: avidin oxidized with 5 mM NaIO4 in presence of 1 mM HABA”, in data set [2], the KA turned out to be 5.42e+06 ± 590000 M⁻¹ and the “N (stoichiometry)” value was 1.9 ± 0.012. In addition, the “BiotinDOTA binding % ± SD” value in [1] came out at 95.0 ± 1.7%.
As to “OXavidinHABA 10 mM NaIO4: avidin oxidized with 10 mM NaIO4 in presence of 1 mM HABA”, the KA in data set [2] is 3.34e+06 ± 212000 M⁻¹. Also, the “N (stoichiometry)” value in data set [2] was 1.7 ± 0.008. Further, the “BiotinDOTA binding % ± SD” value worked out at 86.3% in data set [1] and 86.3 ± 1.6 % in data set [1] (listed as OXavidinHABA 10 mM NaIO4 + 1 mM HABA).
For the substance “OXavidinHABA 20 mM NaIO4: avidin oxidized with 20 mM NaIO4 in presence of 1 mM HABA”, in [2], the KA amounted to 2.5e+06 ± 132000 M⁻¹ and the “N (stoichiometry)” value is 1.5 ± 0.007. Moreover, the “BiotinDOTA binding % ± SD” value in data set [1] came to 81.4%. For the same substance, the “BiotinDOTA binding % ± SD” value in data set [1] (listed as OXavidinHABA 20 mM NaIO4 + 1 mM HABA) amounted to 81.4 ± 1.0 %.
Take “OXavidinHABA 40 mM NaIO4 + 1 mM HABA: avidin oxidized with 40 mM NaIO4 in presence of 1 mM HABA”: in [1], the “BiotinDOTA binding % ± SD” value came to 73.0 ± 0.6%.
Regarding “OXavidinHABA: HABA-saturated avidin oxidized with sodium periodate; NaIO4 concentration not stated at these places”, in data set [2], the stoichiometry of interaction is recorded as 1.7 molecules of ST2210 per molecule and the “association constants (KA)” value was determined as 2.5e+06 M⁻¹. In [6] (2 hours from i.v. injection, 48 hours after avidination), the “specific captation of 111In-ST2210 in treated tissue compared with WTavidin” value is “much higher”. Besides, the “captation of second dose of 111In-ST2210 in treated limb” value in [6] (after a first dose of cold ST2210 24 hours before) was “comparable to that obtained with the single dose”. Besides, in [6], the “distribution of 111In-ST2210 in non target organs” value is “similar”. Also, in data set [7], the “% ID/breast (+/− SD) at 24 h” value is recorded as 65.8 (0.08) % ID/breast and the “amount found in the mammary tissue” value turned out to be 65.8 % ID. In [3], the tissue half life entry is “about 2 weeks”. Besides, the “residence in the brain” value in data set [8] was “about 12.65±6.59 % ID/100 mg of tissue”. The “amount in the treated limb” value in data set [9] is on record as 17 % ID/100 mg. Further, in data set [4], the thermal denaturation reversibility entry was “irreversible”; the “p (slope of sigmoidal curve)” value is 11.2 and 11.2 ± 0.4; the midpoint of thermal melting (Tm) was 78.1 °C and 78.1 ± 0.3 °C. Further, the “tissue permanence compared to WTavidin” value in data set [10] is on record as “increase of tissue permanence”. Also, the “effect on cancer lesions of the mammary gland” value in data set [11] is given as “significant reduction of cancer lesions”. The “haematoxylin/eosin staining of muscle” value in data set [12] is recorded as “no histological abnormalities”.
Take “PEGavidin: PEG-conjugated avidin prepared according to Caliceti [reference compound]”: the “tissue permanence compared to WTavidin” value in data set [10] is listed as “did not affect the tissue permanence”.
Regarding “WTavidin: wild type avidin, glycoprotein of about 68 kDa present in egg white, high affinity for biotin [reference compound]”, in [2], the stoichiometry of interaction was 3.0 molecules of ST2210 per molecule, the KA worked out at 3.45e+06 ± 307000 M⁻¹, the “N (stoichiometry)” value was found to be 3.0 ± 0.016 and the “association constants (KA)” value is 3.45e+06 M⁻¹. Besides, the “distribution of 111In-ST2210 in non target organs” value in data set [6] is “similar”. For the same substance, in data set [7], the “% ID/breast (+/− SD) at 24 h” value was 8.5 (1.13) % ID/breast and the “amount found in the mammary tissue” value came out at 8.5 % ID. The substance also displayed a tissue half life in data set [3] of 2 h. Besides, the “amount in the treated limb” value in data set [9] is less than 0.5 % ID/100 mg. Also, in [4], the “p (slope of sigmoidal curve)” value was 14.7 and the Tm is 79.0 °C. For the same substance, in data set [4] (listed as Avidin), the Tm came out at 79.0 ± 0.1 °C and the “p (slope of sigmoidal curve)” value is listed as 14.7 ± 0.3. In addition, in data set [4] (listed as avidin), the melting temperature (Tm) turned out to be 79.0 °C and the “p (slope of sigmoidal curve)” value is listed as 14.7. In addition, the “BiotinDOTA binding % ± SD” value in data set [1] is given as 100^@ %. Besides, the “distribution in the non target organs (blood, kidney, liver)” value in [5] was “higher distribution”. Further, the “haematoxylin/eosin staining of muscle” value in data set [12] is on record as “no histological abnormalities”.

The term Tm denotes the temperature at which the thermal transition is half complete.
